Data from US12534469B2 (CHILDREN'S HOSPITAL MEDICAL CENTER, priority 2020, dated 2026).
Where two headings read alike, the source gives them in different places.

Experiments:
IRAK4 = molecular target: T1, IRAK4 (Homo sapiens, UniProt Q9NWZ3); experiment: RBC HotSpot Kinase Assay, IRAK4; type: biochemical; parameters: purchased Reaction Biology (RBC HotSpot Kinase Assay)
T1 sequence (Q9NWZ3 1-460): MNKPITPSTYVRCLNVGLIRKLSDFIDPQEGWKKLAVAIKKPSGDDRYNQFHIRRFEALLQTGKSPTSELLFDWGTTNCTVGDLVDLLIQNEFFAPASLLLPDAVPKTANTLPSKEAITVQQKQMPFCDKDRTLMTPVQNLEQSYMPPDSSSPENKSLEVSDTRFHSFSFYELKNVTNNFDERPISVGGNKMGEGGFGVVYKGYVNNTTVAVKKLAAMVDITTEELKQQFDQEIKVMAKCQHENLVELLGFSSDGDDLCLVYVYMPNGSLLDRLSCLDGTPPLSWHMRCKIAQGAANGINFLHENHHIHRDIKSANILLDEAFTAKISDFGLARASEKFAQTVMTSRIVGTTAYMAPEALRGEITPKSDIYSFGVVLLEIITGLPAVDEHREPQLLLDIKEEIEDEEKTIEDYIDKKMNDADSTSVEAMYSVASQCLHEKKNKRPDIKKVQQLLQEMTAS
Procedure, shortened: (§1)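 Radiometric filter-binding (HotSpot) activity assay on isolated recombinant kinase, possibly truncated or catalytic domain only, in 20 mM Hepes pH 7.5, 10 mM MgCl2, 1 mM EGTA, 2 mM DTT, 1% DMSO. Compound preincubated 20 min with kinase and substrate, then ^33P-ATP added. Reaction 2 h at room temperature, read by P81 filter binding.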

FLT3 = molecular target: T2, FLT3 (Homo sapiens, UniProt P36888); experiment: RBC HotSpot Kinase Assay, FLT3; type: biochemical
T2 construct: purchased Reaction Biology (RBC HotSpot Kinase Assay)
T2 sequence (P36888 564-958 limits assumed): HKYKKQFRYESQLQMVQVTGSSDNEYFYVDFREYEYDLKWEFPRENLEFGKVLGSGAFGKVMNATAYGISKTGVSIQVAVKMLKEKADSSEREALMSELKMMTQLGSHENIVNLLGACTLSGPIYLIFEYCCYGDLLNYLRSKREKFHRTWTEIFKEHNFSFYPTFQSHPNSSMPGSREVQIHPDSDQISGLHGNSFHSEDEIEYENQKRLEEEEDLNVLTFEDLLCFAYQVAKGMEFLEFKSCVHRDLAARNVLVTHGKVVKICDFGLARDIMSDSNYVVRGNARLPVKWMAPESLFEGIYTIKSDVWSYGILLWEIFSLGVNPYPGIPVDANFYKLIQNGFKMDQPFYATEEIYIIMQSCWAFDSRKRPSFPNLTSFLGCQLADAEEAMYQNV
Procedure, shortened: as §1

MOLM14 D835Y cells = experiment: MOLM14 D835Y cell viability assay (Cell Titer Glo); type: cell-based; details: Homo sapiens, MOLM-14, 48 h
Procedure: (§2) Both cell lines have activated FLT3 receptors, each of which carry additional resistance mutations in the kinase domain (D835Y and F691L, respectively).
(§3) MOLM14 D835Y and MOLM14 F691L cells were grown in RPMI-1640 media supplemented with 20% fetal bovine serum (FBS). For viability/cytotoxicity assessments, cells were seeded into 1536-well white polystyrene tissue culture-treated Greiner plates using a Multidrop Combi dispenser (ThermoFisher), in final volume 5 μL of growth media per well, at a density of 1000 cells per well. After cell addition, 23 nL of test compound were transferred into individual wells (22 doses tested for each test compound, with a 1:2 dilution series starting at 10 μM) via a 1536 pin-tool. Bortezomib (final concentration 2.3 μM) was used as a positive control for cell cytotoxicity. Plates were incubated for 48 hours at standard incubator conditions covered by a stainless steel gasketed lid to prevent evaporation. 48 hours post compound addition, 3 μL of Cell Titer Glo (Promega) were added to each well and plates were incubated at room temperature for 15 minutes with the stainless-steel lid in place. Luminescence readings were taken using a Viewlux imager (PerkinElmer) with a 2 second exposure time per plate.

THP-1-Blue NF-κB cells = experiment: NF-kB SEAP reporter assay in THP-1-Blue NF-κB cells; type: cell-based; details: 24 hours
Procedure: THP-1-Blue NF-κB cells (InvivoGen) carrying a stable integrated NF-κB-inducible secreted embryonic alkaline phosphatase (SEAP) reporter construct were plated at a concentration of 1×10^5 cells per well. The cells were stimulated with Pam3CSK4 (1 ng/mL) or hIL1B (1 ng/mL). After 10-20 minutes, the cells were then treated with vehicle (DMSO) or serial dilutions of the test compounds (10 doses tested for each test compound, with a 1:10 dilution series starting at 1 μM or 3 μM) with a final volume of 200 μL for 24 hours at 37° C. After 24 hours, the cells were centrifuged and 20 μL supernatant was incubated with 180 μL QUANTI-Blue reagent at 37° C. for 30-60 minutes. The levels of NF-κB-induced gene expression were measured in a microplate reader at 620 nm.

MOLM14 F691L cells = experiment: MOLM14 F691L cell viability assay (Cell Titer Glo); type: cell-based; details: Homo sapiens, MOLM-14, 48 h
Procedure: as §2, §3

IRAK1 = molecular target: T3, IRAK1 (Homo sapiens, UniProt P51617); experiment: RBC HotSpot Kinase Assay, IRAK1; type: biochemical
T3 construct: purchased Reaction Biology (RBC HotSpot Kinase Assay)
T3 sequence (P51617 whole entry): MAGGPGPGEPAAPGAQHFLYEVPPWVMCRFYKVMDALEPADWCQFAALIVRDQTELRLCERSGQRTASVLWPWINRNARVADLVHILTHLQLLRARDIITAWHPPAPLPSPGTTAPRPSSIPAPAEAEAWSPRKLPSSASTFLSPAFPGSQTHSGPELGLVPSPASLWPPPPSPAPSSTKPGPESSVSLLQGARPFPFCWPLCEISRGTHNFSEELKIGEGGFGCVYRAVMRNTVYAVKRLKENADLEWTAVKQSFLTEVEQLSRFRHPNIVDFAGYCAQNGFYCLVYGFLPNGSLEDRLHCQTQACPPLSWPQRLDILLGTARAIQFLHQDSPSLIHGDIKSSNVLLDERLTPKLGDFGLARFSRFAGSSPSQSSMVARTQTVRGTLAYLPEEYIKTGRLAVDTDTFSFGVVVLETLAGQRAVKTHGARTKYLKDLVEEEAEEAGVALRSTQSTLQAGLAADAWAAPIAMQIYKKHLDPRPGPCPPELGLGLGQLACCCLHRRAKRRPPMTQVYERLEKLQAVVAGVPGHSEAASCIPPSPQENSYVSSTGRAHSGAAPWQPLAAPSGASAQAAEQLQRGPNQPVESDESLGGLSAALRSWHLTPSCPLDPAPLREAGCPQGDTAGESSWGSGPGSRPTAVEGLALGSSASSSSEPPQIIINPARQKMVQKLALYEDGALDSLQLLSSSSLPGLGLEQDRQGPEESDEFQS
Procedure, shortened: as §1

[1] = stimulated with Pam3CSK4 (1 ng/mL), read-out: NF-κB Pam3SCK4 IC50
[2] = stimulated with hIL1B (1 ng/mL), read-out: NF-κB IL1B IC50

Row | SMILES | IC50 (IRAK4) | IC50 (FLT3) | IC50 (MOLM14 D835Y cells) | IC50 (THP-1-Blue NF-κB cells; [1]) | IC50 (THP-1-Blue NF-κB cells; [2]) | IC50 (MOLM14 F691L cells) | IC50 (IRAK1)
1 | COc1cc2ncc(-c3cccc(N[C@H]4CNC[C@@H]4F)n3)n2nc1C(F)F [Compound 116, 6-(6-(difluoromethyl)-7-methoxyimidazo[1,2-b]pyridazin-3-yl)-N-((3S,4S)-4-fluoropyrrolidin-3-yl)pyridin-2-amine] | < 0.5 nM | < 0.5 nM | 77 nM | 20 nM | 46 nM | 1090 nM | 25 nM
2 | COc1cc2ncc(-c3cccc(N[C@H]4CNCC[C@@H]4F)n3)n2nc1C(F)F [Compound 118, 6-(6-(difluoromethyl)-7-methoxyimidazo[1,2-b]pyridazin-3-yl)-N-((3S,4S)-4-fluoropiperidin-3-yl)pyridin-2-amine] | 2 nM | < 0.5 nM | 61 nM | 76 nM | 216 nM | 770 nM | 70 nM
